Reference: patent publication US6448273B1, “Orally active iron (III) chelators” (BTG International Limited, priority 1997, dated 2002)
Counter-ions that a name gives are not always drawn. Like-named read-outs stand apart in the source and are kept apart here.

Key:
[1] = Distribution coefficient DpH7.4 (Kpart), octanol/MOPS pH 7.4; format: physicochemical
Text: The requirements for orally active chelators are set out in Table 4 of Hider et al as (i) good absorption from tile gastrointestinal tract, (ii) efficient liver extraction, (iii) poor entry into peripheral cells such as thymus, muscle, heart and bone marrow and (iv) poor ability to penetrate the blood-brain barrier and maternal/placental barriers.

pKa of the ligand = format: physicochemical
[2] = Iron (III) complex stability constant Logβ3; format: physicochemical
[3] = pM for Iron III (affinity for iron as Fe III); format: physicochemical; conditions: negative log ferric ion concentration; total iron 10^-6 M, ligand 10^-5 M
Text: The present inventors now have provided a group of 3-hydroxypyridin-4-one iron chelators having improved properties as compared to the prior art as assessed against the criteria set out above. […] Preferred compounds have efficiency of iron mobilisation of in excess of 52% when given orally to rats. […]

[4] = Iron III Mobilisation Efficacy Assay in Rat: Oral Administration; format: in vivo; conditions: for Efficacy: iron mobilisation less control
Procedure: Control rats were given an equivalent volume of water. The rats were placed in individual metabolic cages and their urine and faeces collected. One hour after the administration they were allowed access to food, with no restriction on water being made throughout the study period. The investigation was terminated 24 hours after the ^59Fe ferritin administration when rats were sacrificed and their livers and gastrointestinal tracts, including all contents including faeces, were removed for gamma counting.

[5] = cited from earlier work
[6] = in vivo; cited from earlier work
[7] = method marked (p), first pKa, read-out: pKa, first value (p)
[8] = method marked (s), first pKa, read-out: pKa, first value (s)
[9] = method marked (p), second pKa, read-out: pKa, second value (p)
[10] = method marked (s), second pKa, read-out: pKa, second value (s)

Row | Structure (SMILES) | DpH 7.4 [1] | pKa, first value (s) (pKa of the ligand; method marked (s), first pKa) | pKa, second value (s) (pKa of the ligand; method marked (s), second pKa) | Logβ3 [2] | pMpH 7.45 [3] | Iron Mobilisation ([4]; 150 μmol/kg) | Efficacy ([4]; 150 μmol/kg) | Iron Mobilisation ([4]; 300 μmol/kg) | Efficacy ([4]; 300 μmol/kg) | Iron Mobilisation ([4]; 450 μmol/kg) | Efficacy ([4]; 450 μmol/kg) | effectiveness in man [5] | crossing of placenta and blood brain barrier [6] | phase II metabolism [6] | melting point | pKa (pKa of the ligand; [7]) | pKa (pKa of the ligand; [8]) | pKa (pKa of the ligand; [9]) | pKa (pKa of the ligand; [10])
1 | Cc1c(O)c(=O)ccn1C [CP20, reference compound] | 0.17 | 3.56 | 9.64 | 36.3 | 19.4 | 6.3 ± 2.1% | 2.4% | 9.2 ± 2.2% | 5.4% | 13.4 ± 5.2% | 9.5% | effective in man | able to cross the placenta and blood brain barrier | rapidly inactivated by phase II metabolism |  |  |  |  | 
2 | CCc1c(O)c(=O)ccn1CC [CP94, 1,2-diethyl-3-hydroxypyridin-4-one, reference compound] | 1.79 |  |  | 36.7 | 19.7 | 16.5 ± 6.2% | 12.6% | 35.7 ± 4.4% | 31.8% | 59.7 ± 10.9% | 55.8% | effective in man | able to cross the placenta and blood brain barrier | rapidly inactivated by phase II metabolism |  |  |  |  | 
3 | O=c1ccn(CCCO)c(CO)c1O [CP366, 1-(3-hydroxypropyl)-2-hydroxymethyl-3-hydroxy-pyridin-4(1H)-one] | 0.056 | 2.87 | 9.14 | 35.25 | 20.69 |  |  |  |  |  |  |  |  |  | 138 to 139 °C |  |  |  | 
4 | CCn1c(C)cc(=O)c(O)c1CO [CP369, 1-Ethyl-2-hydroxymethyl-3-hydroxy-6-methyl-pyridin-4(1H)-one hydrochloride] | 0.223 | 3.28 | 9.38 | 35.6 | 20.35 |  |  |  |  |  |  |  |  |  |  |  |  |  | 
5 | CC(O)c1c(O)c(=O)ccn1CCCO (centres unmarked) [CP372, 1-(3-hydroxypropyl)-2-(1-hydroxyethyl)-3-hydroxy-pyridin-4(1H)-one hydrochloride] | 0.075 | 2.96 | 8.69 | 34.67 | 21.48 |  |  |  |  |  |  |  |  |  |  |  |  |  | 
6 | CCC(O)c1c(O)c(=O)cc(C)n1C (centres unmarked) [CP374, 1,6-Dimethyl-2-(1-hydroxypropyl)-3-hydroxy-pyridin-4(1H)-one hydrochloride] | 0.73 |  | 8.98 | 35.03 | 20.95 | 34.0 ± 4.3% | 30.1% |  |  | 60.4 ± 15.6% | 56.5% |  |  |  |  | 2.76 | 2.78 |  | 
7 | COCc1cc(=O)c(O)c(COC)n1C [CP388, 2,6-Dimethoxymethyl-1-methyl-3-hydroxypyridin-4(1H)-one hydrochloride] | 0.40 |  |  | 34.5 | 21.1 |  |  |  |  |  |  |  |  |  |  | 2.93 | 2.73 | 8.87 | 8.77
8 | CNC(=O)c1c(O)c(=O)cc(C)n1C [CP502, 1,6-Dimethyl-3-hydroxy-4(1H)-pyridinone-2-carboxy-(N-methyl)-amide hydrochloride] | 0.04 |  |  | 35.78 | 23.42 |  |  |  |  |  |  |  |  |  |  | 2.83 | 2.64 | 8.38 | 8.36
9 | Cc1cc(=O)c(O)c(C(=O)NC(C)C)n1C [CP504, 1,6-Dimethyl-3-hydroxy-4(1H)-pyridinone-2-carboxy-(N-isopropyl)-amide hydrochloride] | 0.30 |  |  | 35.34 | 22.46 |  |  |  |  |  |  |  |  |  |  | 2.81 | 2.64 | 8.74 | 8.56
10 | COCCNC(=O)c1c(O)c(=O)cc(C)n1C [CP506, 1,6-Dimethyl-3-hydroxy-4(1H)-pyridinone-2-carboxy-(N-2′-methoxyethyl)-amide hydrochloride] | 0.04 |  |  | 34.88 | 22.57 |  |  |  |  |  |  |  |  |  |  | 2.62 | 2.5 | 8.34 | 8.35
11 | Cc1cc(=O)c(O)c(C(=O)NCCO)n1C [CP507, 1,6-Dimethyl-3-hydroxy-4(1H)-pyridinone-2-carboxy-(N-2′-hydroxyethyl)-amide hydrochloride] | 0.02 |  |  | 34.63 | 22.73 |  |  |  |  |  |  |  |  |  |  | 2.65 | 2.57 | 8.28 | 8.19
12 | Cc1cc(=O)c(O)c(C(=O)N(C)C)n1C [CP508, 1,6-Dimethyl-3-hydroxy-4(1H)-pyridinone-2-carboxy-(N,N-dimethyl)-amide hydrochloride] | 0.16 |  |  | 35.13 | 23.46 |  |  |  |  |  |  |  |  |  |  | 2.61 | 2.61 | 8.1 | 8.1
13 | O=c1ccn(CCO)c(C(O)c2ccccc2)c1O (centres unmarked) [Novartis bidentate ligand (3), reference compound] | 2.81 |  |  | 35.57 | 23.15 |  |  |  |  |  |  |  |  |  |  | 2.59 | 2.6 | 8.38 | 8.39
